US9066977B2, “Method of utilization of combination of benzophenone derivative or salt thereof and immunosuppressing agent, and pharmaceutical composition comprising these components” (TOYAMA CHEMICAL CO., LTD., priority 2008, dated 2015)

What was measured:
[1] = system: mouse type II collagen-induced arthritis; test: Combined use of compound A and methotrexate on mouse type II collagen-induced arthritis (Test Example 1); type: in vivo; conditions: male DBA/1J mice, day following final administration
Procedure: Eight-week-old male DBA/1J mice (9 or 10 mice per group; Charles River Laboratories Japan) were used. A 2 mg/mL bovine type II collagen dissolved in a 0.1 mol/L acetic acid solution (Koken Co., Ltd.) was mixed with an equal volume of Freund's complete adjuvant (BD Diagnostic Systems) to prepare an emulsion. The emulsion (0.2 mL) was intradermally injected at the hip of each mouse. Twenty-one days after the primary immunization, the same treatment was carried out (secondary immunization), so that type II collagen arthritis was induced.
Compound A was dissolved in a 2-fold molar amount of sodium hydroxide solution, and a 3-fold weight of polyvinylpyrrolidone was then added to the solution, followed by dilution with distilled water. The concentration of compound A in a compound A (1 mg/kg)-dosing solution was adjusted to be 0.1 mg/mL. Methotrexate was suspended in 0.5% methylcellulose solution. The concentration of methotrexate in methotrexate (0.5 mg/kg)-dosing solution was adjusted to be 0.05 mg/mL. Each dosing solution was orally administered to the mice.
To control group, polyvinylpyrrolidone solution and 0.5% methylcellulose solution were orally administered. […]
The knuckle portion and the articulations of wrist and tarsus portions of the four paws of each mouse were evaluated using the following 4 scores. […]

[2] = system: mouse type II collagen-induced arthritis; test: Combined use of compound A and dexamethasone on mouse type II collagen-induced arthritis (Test Example 2); type: in vivo; conditions: male DBA/1J mice, day following final administration
Procedure: Eight-week-old male DBA/1J mice (8-10 mice per group; Charles River Laboratories Japan) were used. The induction of mouse type II collagen arthritis was conducted by the method according to Test Example 1.
Compound A was dissolved in a 2-fold molar amount of sodium hydroxide solution, and a 3-fold weight of polyvinylpyrrolidone was then added to the solution, followed by dilution with distilled water. The concentrations of compound A in compound A (1 mg/kg and 10 mg/kg)-dosing solutions were adjusted to be 0.1 mg/mL and 1.0 mg/mL. The concentration of compound A in a compound A (1 mg/kg)-dosing solution in combined administration was adjusted to be 0.2 mg/mL. Dexamethasone was suspended in polyvinylpyrrolidone solution. The concentration of dexamethasone in dexamethasone (0.025 mg/kg)-dosing solution was adjusted to be 0.0025 mg/mL. The concentration of dexamethasone in dexamethasone (0.025 mg/kg)-dosing solution in combined administration was adjusted to be 0.005 mg/mL. Each dosing solution was orally administered to the mice.
To control group, polyvinylpyrrolidone solution was orally administered.
After dividing into groups, and the second immunization, compound A and dexamethasone were administered once a day for 14 days.
The evaluation to mouse arthritis was conducted by the method according to Test Example 1.

[3] = Compound A 1 mg/kg orally once a day for 14 days

In the case of `O=C(O)CCc1cc(C(=O)c2ccc(OC3CCCC3)cc2O)ccc1OCc1ccc2c(O)noc2c1` [Compound A, 3-(5-(4-(cyclopentyloxy)-2-hydroxybenzoyl)-2-((3-hydroxy-1,2-benzisoxazol-6-yl)methoxy)phenyl)propionic acid], the “Arthritis inhibition rate (%)” value [1, 3] is reported as 19%, the “Arthritis inhibition rate (%)” value [2, 3] is reported as 14% and the “Arthritis inhibition rate (%)” value ([2]; Compound A 10 mg/kg orally once a day for 14 days) is reported as 58%.
`C[C@@H]1C[C@H]2[C@@H]3CCC4=CC(=O)C=C[C@]4(C)[C@@]3(F)[C@@H](O)C[C@]2(C)[C@@]1(O)C(=O)CO` [Dexamethasone, reference compound] was tested, and the “Arthritis inhibition rate (%)” value ([2]; Dexamethasone 0.025 mg/kg orally once a day for 14 days) was 30%.
In the case of `CN(Cc1cnc2nc(N)nc(N)c2n1)c1ccc(C(=O)N[C@@H](CCC(=O)O)C(=O)O)cc1` [Methotrexate, reference compound], the “Arthritis inhibition rate (%)” value ([1]; Methotrexate 0.5 mg/kg orally once a day for 14 days) is reported as 15%.
